Results as given in PMC12947280, “An Antifungal with a Novel Mechanism of Action Discovered via Resistance Gene-Guided Genome Mining” (ACS Central Science, 2026).

What was measured:
[1] = Liver microsome stability, mouse; type: in vitro ADME; settings: mouse liver microsomes; read-out: Liver microsome t1/2 Mouse
A. fumigatus = test: Inhibition of A. fumigatus growth; type: cell-based; settings: Aspergillus fumigatus
[2] = set-up: method as in PMID 41148120; settings: another study; cited from earlier work
A. fumigatus ALS = A. fumigatus ALS (Aspergillus fumigatus, UniProt Q4WXQ3); test: ALS biochemical assay (AfALS)
A. fumigatus ALS, sequence (Q4WXQ3 entry or part of it): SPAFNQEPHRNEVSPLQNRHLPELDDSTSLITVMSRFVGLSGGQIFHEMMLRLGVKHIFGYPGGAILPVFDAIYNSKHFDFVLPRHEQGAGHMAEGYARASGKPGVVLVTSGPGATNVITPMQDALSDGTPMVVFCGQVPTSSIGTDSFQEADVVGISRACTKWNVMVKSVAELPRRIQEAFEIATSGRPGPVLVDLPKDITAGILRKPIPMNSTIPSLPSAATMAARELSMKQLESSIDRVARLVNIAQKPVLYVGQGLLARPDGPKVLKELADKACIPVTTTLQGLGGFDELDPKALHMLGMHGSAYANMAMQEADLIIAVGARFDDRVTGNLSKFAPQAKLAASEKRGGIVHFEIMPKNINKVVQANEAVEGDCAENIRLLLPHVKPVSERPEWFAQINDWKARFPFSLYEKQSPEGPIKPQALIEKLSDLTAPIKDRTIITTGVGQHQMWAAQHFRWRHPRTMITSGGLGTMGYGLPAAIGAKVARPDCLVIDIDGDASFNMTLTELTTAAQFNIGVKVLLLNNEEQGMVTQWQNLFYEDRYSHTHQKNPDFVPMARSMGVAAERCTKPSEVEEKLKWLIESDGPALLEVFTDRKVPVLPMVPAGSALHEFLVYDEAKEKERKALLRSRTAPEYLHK
Method: ALS biochemical assay (AfALS)
Aspergillus fumigatus acetohydroxyacid synthase (AfILV2) lacking the N-terminal mitochondrial-targeting sequence (amino acids 112-752) was overproduced and isolated from E. coli as an N-terminally His6-tagged protein. Assays (50 µL final volume) contained 200 nM His6-AfALS, 8 mM pyruvate, 1 mM thiamine pyrophosphate, and 10 µM flavin adenine dinucleotide, 10 mM MgCl2, 1 mM DTT, 1% DMSO (± inhibitor) in 200 mM KH2PO4 buffer at pH
7.5. Following a 30 min pre-incubation of the enzyme and inhibitor in the reaction mixture at room temperature, reactions were initiated with the addition of pyruvate. AfALS assays were carried out at 30 °C for 120 min. The reaction was quenched with the addition of 5 µL of 10% H2SO4 (v/v in deionized water). Reactions were incubated at 60 °C at incubating microplate shaker for 15 min to convert the product of the ALS reaction, acetolactate, to acetoin.
Subsequently, the concentration of acetoin was determined by the addition of 7.5 µL 6 M NaOH, 25 µL 0.5% creatine (w/v in deionized water), and 25 µL 4% 1-naphthol (w/v in 2.5 M NaOH).
This mixture was incubated at 60 °C in an incubating microplate shaker for 15 min. 40 µL of this reaction mixture was transferred to a half area UV-star 96-well plate (Grenier) and the absorbance at 525 nm was measured on a Spark multimode plate reader (Tecan). The percent inhibition was calculated by the comparison of the signal to DMSO (0% inhibition) and no enzyme (100% inhibition) controls. IC50 values were calculated from the dose response curves using Prism 9 (four parameter, variable slope). […]
(amino acids 58-687) was codon optimized for expression in E. coli and synthesized by […]

physchem = settings: buffer, pH 7.4
[3] = Liver microsome stability, human; type: in vitro ADME; settings: human liver microsomes; read-out: Liver microsome t1/2 Human
Plasma stability, mouse = type: in vitro ADME; settings: read-out: Plasma t1/2 Mouse
Plasma stability, human = type: in vitro ADME; settings: read-out: Plasma t1/2 Human
AfALS = test: Intact protein mass spectrometry; type: binding, Aspergillus fumigatus; settings: 10 μM, 30 min
Source text: We next characterized the structural basis for binding of 1 to ALS. Given the strained structure and the observed tight binding kinetics, we hypothesized that 1 may be binding covalently. Analysis of ALS from both AfALS and ScALS by intact protein mass spectrometry yielded traces with multiple proteoforms for both proteins. […] Limited proteolysis followed by peptide mapping localized the covalent attachment to the 239[…]258 peptide of ScALS with Lys251 and Asp252 (equivalent to Lys310 and Asp311 in AfALS) serving as the most likely attachment sites (Figure S7).

C. albicans ALS = C. albicans ALS (Candida albicans, UniProt A0A1D8PJF9); test: ALS biochemical assay (CaALS)
C. albicans ALS, sequence (A0A1D8PJF9 entry or part of it): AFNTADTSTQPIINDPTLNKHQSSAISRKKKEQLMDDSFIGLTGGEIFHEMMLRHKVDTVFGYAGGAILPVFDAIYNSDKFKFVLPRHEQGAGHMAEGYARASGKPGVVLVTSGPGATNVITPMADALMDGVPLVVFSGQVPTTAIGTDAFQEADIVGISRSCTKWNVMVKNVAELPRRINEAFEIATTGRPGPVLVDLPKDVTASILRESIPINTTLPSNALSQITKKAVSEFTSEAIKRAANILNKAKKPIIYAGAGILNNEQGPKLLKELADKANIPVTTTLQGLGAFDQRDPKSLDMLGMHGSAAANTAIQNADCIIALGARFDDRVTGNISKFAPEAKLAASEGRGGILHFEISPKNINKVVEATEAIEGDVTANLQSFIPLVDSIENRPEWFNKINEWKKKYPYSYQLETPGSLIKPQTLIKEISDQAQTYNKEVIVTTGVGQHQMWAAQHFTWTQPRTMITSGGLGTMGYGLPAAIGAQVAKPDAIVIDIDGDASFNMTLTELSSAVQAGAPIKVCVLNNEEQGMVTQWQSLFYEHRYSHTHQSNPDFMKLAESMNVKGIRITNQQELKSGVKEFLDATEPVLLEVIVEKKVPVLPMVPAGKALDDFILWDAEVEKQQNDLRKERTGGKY

CCCC1C(C)=CC2CC=CC3(C)C2C1C(=O)C31C(=O)NC(CCCO)C1=O (centres unmarked) [compound 1]
half-life [1]: 3 min
EC50 (A. fumigatus; read-out: A. fumigatus growth inhibition EC50 (Figure 4A)): 700 ± 500 nM
IC50 (A. fumigatus; read-out: A. fumigatus growth inhibition IC50): 700 nM
herbicidal activity [2]: modest herbicidal activity
IC50 (A. fumigatus ALS): 49 ± 8 nM
half-life (physchem): 141 min
half-life [3]: 3 min
half-life (Plasma stability, mouse): 88 min
half-life (Plasma stability, human): 79 min
covalent modification of AfALS (intact mass shift) (AfALS): mass shifts consistent with covalent addition
IC50 (C. albicans ALS): 60 ± 10 nM
